# Source: patent US20250144067A1, “PERSONALIZED STARVATION THERAPY FOR CANCER” (Faeth Therapeutics, Inc., priority 2021, published 2025)
# Structures can show the parent of a compound that is named as a salt.
# Legend:
# [1] = tested on: NCI-H292 lung cancer cells; experiment: FDA drug screening, complete media vs cholesterol-free media with simvastatin (TABLE 2); type: cell-based, human; conditions: for Cholesterol-free media + simvastatin (0.04 μM) / Complete Media: NCI-H292 cells
# [2] = tested on: NCI-H292 lung cancer cells; experiment: FDA drug screening, complete media vs cholesterol-free media without statin (TABLE 1); type: cell-based, human
# [3] = FDA library drug in cholesterol-free media with simvastatin 0.04 μM
# [4] = FDA library drug in complete media
# [5] = complete media vs cholesterol-free media + simvastatin (0.04 μM), >0 enhanced anti-cancer activity, about 0 neutral, <0 antagonist
# [6] = Complete minus Cholesterol-free, >0 enhanced anti-cancer activity, about 0 neutral, <0 antagonist
# [7] = NCI-H292 cells, cholesterol-free media without statin, FDA drug library screen
# [8] = NCI-H292 cells, complete media, FDA drug library screen
# [9] = cholesterol-free media with simvastatin 0.04 μM, FDA drug library screen (TABLE 2)
# [10] = complete media, FDA drug library screen (TABLE 2)
# [11] = complete media minus cholesterol-free media + simvastatin (0.04 μM), >0 enhanced anti-cancer activity, about 0 neutral, <0 antagonist
# [12] = Complete minus Cholesterol-free, greater than 0 enhanced anti-cancer activity, about 0 neutral, below 0 antagonists
# [13] = NCI-H292 cells in cholesterol-free media without statin
# [14] = NCI-H292 cells in complete media
# [15] = FDA drug library screen, cholesterol-free media with simvastatin 0.04 μM
# [16] = FDA drug library screen, complete media
# [17] = complete vs cholesterol-free media, >0 enhanced anti-cancer activity, about 0 neutral, <0 antagonist
# [18] = NCI-H292 cells, cholesterol-free media without statin
# [19] = complete media minus cholesterol-free media + simvastatin, >0 enhanced anti-cancer activity, about 0 neutral, <0 antagonist
# [20] = complete vs cholesterol-free media, greater than 0 enhanced anti-cancer activity, about 0 neutral, below 0 antagonists
# [21] = drug in cholesterol-free media with simvastatin 0.04 μM
# [22] = Complete minus Cholesterol-free, greater than 0 enhanced anti-cancer activity, about 0 neutral, below 0 antagonist
# [23] = NCI-H292 cells, FDA drug library screen, cholesterol-free media without statin
# [24] = NCI-H292 cells, FDA drug library screen, complete media
# [25] = cholesterol-free media with simvastatin 0.04 μM, cell growth value in FDA drug screen
# [26] = complete media, cell growth value in FDA drug screen
compound,measurement,setting,value
COC(=O)N[C@H](C(=O)N1CCC[C@H]1c1nc(-c2ccc(-c3ccc(-c4c[nH]c([C@@H]5CCCN5C(=O)[C@@H](NC(=O)OC)C(C)C)n4)cc3)cc2)c[nH]1)C(C)C [Daclatasvir (dihydrochloride)],Cholesterol-free media + simvastatin (0.04 μM),[1]; [3],1.149
same,Complete Media,[1]; [4],0.7215
same,Difference,[1]; [5],−0.43
same,Difference,[2]; [6],0.02
same,Cholesterol-free,[2]; [7],1.025
same,Complete,[2]; [8],1.046
Cc1cn([C@@H]2C[C@@H](O)[C@H](CO)O2)c(=O)[nH]c1=O [Telbivudine],Cholesterol-free media + simvastatin (0.04 μM),[1]; [9],0.8748
same,Complete Media,[1]; [10],0.8605
same,Difference,[1]; [11],−0.01
same,Difference,[2]; [6],−0.03
same,Cholesterol-free,[2]; [7],0.8613
same,Complete,[2]; [8],0.8275
O=C(O)C[C@@H]1CC[C@H](NC(=O)Cc2cccs2)B(O)O1 [Vaborbactam],Cholesterol-free media + simvastatin (0.04 μM),[1]; [9],0.8544
same,Complete Media,[1]; [10],0.8532
same,Difference,[1]; [11],0.00
same,Difference,[2]; [6],0.06
same,Cholesterol-free,[2]; [7],0.9017
same,Complete,[2]; [8],0.9648
CCCN1CC(c2ccc(S(C)(=O)=O)cc2)=C(c2ccc(C)cc2)C1=O [Imrecoxib],Cholesterol-free media + simvastatin (0.04 μM),[1]; [9],1.183
same,Complete Media,[1]; [10],1.141
same,Difference,[1]; [11],−0.04
same,Difference,[2]; [12],−0.54
same,Cholesterol-free,[2]; [13],1.763
same,Complete,[2]; [14],1.221
CC[C@H]1[C@@H](O)[C@@H]2[C@H](CC[C@]3(C)[C@@H]([C@H](C)CCC(=O)O)CC[C@@H]23)[C@@]2(C)CC[C@@H](O)C[C@@H]12 [Obeticholic acid],Cholesterol-free media + simvastatin (0.04 μM),[1]; [15],1.258
same,Complete Media,[1]; [16],1.13
same,Difference,[1]; [5],−0.13
same,Cholesterol-free,[2]; [7],0.5907
same,Complete,[2]; [8],0.9124
same,Difference,[2]; [17],0.32
CC(=O)c1c(C)c2cnc(Nc3ccc(N4CCNCC4)cn3)nc2n(C2CCCC2)c1=O.O=S(=O)(O)CCO [Palbociclib (isethionate)],Cholesterol-free media + simvastatin (0.04 μM),[1]; [9],0.7514
same,Complete Media,[1]; [10],0.6914
same,Difference,[1]; [11],−0.06
same,Difference,[2]; [6],−0.25
same,Cholesterol-free,[2]; [18],0.905
same,Complete,"[2]; NCI-H292 cells, complete media",0.6502
O=c1n(CCCN2CCN(c3cccc(Cl)c3)CC2)nc2ccccn12 [Trazodone (hydrochloride)],Cholesterol-free media + simvastatin (0.04 μM),[1]; [15],0.8105
same,Complete Media,[1]; [16],1.053
same,Difference,[1]; [19],0.24
same,Cholesterol-free,[2]; [18],1.4
same,Complete,"[2]; NCI-H292 cells, complete media",1.032
same,Difference,[2]; [20],−0.37
CCc1cc2c(cc1N1CCC(N3CCOCC3)CC1)C(C)(C)c1[nH]c3cc(C#N)ccc3c1C2=O [Alectinib],Cholesterol-free media + simvastatin (0.04 μM),[1]; [3],1.385
same,Complete Media,[1]; [4],1.02
same,Difference,[1]; [5],−0.37
same,Difference,[2]; [6],−0.21
same,Cholesterol-free,[2]; [18],1.125
same,Complete,"[2]; NCI-H292 cells, complete media",0.9146
CCCCCC(=O)O[C@]1(C(C)=O)CC[C@H]2[C@@H]3CCC4=CC(=O)CC[C@]4(C)[C@H]3CC[C@@]21C [Hydroxyprogesterone caproate],Cholesterol-free media + simvastatin (0.04 μM),[1]; [15],1.029
same,Complete Media,[1]; [16],0.8959
same,Difference,[1]; [5],−0.13
same,Cholesterol-free,[2]; [18],1.133
same,Complete,"[2]; NCI-H292 cells, complete media",0.7393
same,Difference,[2]; [20],−0.39
C[C@H]1O[C@@H](n2cc(F)c(=O)[nH]c2=O)[C@H](O)[C@@H]1O [Doxifluridine],Cholesterol-free media + simvastatin (0.04 μM),[1]; [9],1.085
same,Complete Media,[1]; [10],1.031
same,Difference,[1]; [11],−0.05
same,Difference,[2]; [12],−0.49
same,Cholesterol-free,[2]; [13],1.329
same,Complete,[2]; [14],0.8392
O=C(Nc1ccc(Cl)cc1)Nc1ccc(Cl)c(Cl)c1 [Triclocarban],Cholesterol-free media + simvastatin (0.04 μM),[1]; [9],1.029
same,Complete Media,[1]; [10],0.9601
same,Difference,[1]; [11],−0.07
same,Difference,[2]; [6],−0.05
same,Cholesterol-free,[2]; [7],0.8072
same,Complete,[2]; [8],0.7602
C#C[C@]1(O)CC[C@H]2[C@@H]3CCc4cc(O)ccc4[C@H]3CC[C@@]21C [Ethynyl Estradiol],Cholesterol-free media + simvastatin (0.04 μM),[1]; [21],1.254
same,Complete Media,[1]; drug in complete media,1.055
same,Difference,[1]; [5],−0.20
same,Cholesterol-free,[2]; [7],0.8735
same,Complete,[2]; [8],1.393
same,Difference,[2]; [17],0.52
O=C(CCC/C=C\C[C@@H]1[C@@H](CC[C@@H](O)CCc2ccccc2)[C@H](O)C[C@@H]1O)OCCCCO[N+](=O)[O-] [Latanoprostene bunod],Cholesterol-free media + simvastatin (0.04 μM),[1]; [15],1.139
same,Complete Media,[1]; [16],1.004
same,Difference,[1]; [5],−0.14
same,Cholesterol-free,[2]; [7],0.8229
same,Complete,[2]; [8],1.464
same,Difference,[2]; [17],0.64
O=c1[nH]c(=O)n([C@H]2C[C@H](O)[C@@H](CO)O2)cc1I [Idoxuridine],Cholesterol-free media + simvastatin (0.04 μM),[1]; [21],1.124
same,Complete Media,[1]; drug in complete media,0.9636
same,Difference,[1]; [5],−0.16
same,Cholesterol-free,[2]; [7],0.8751
same,Complete,[2]; [8],1.387
same,Difference,[2]; [17],0.51
COc1cc([C@@H]2c3cc4c(cc3[C@@H](O[C@@H]3O[C@@H]5CO[C@@H](c6cccs6)O[C@H]5[C@H](O)[C@H]3O)[C@H]3COC(=O)[C@H]23)OCO4)cc(OC)c1O [Teniposide],Cholesterol-free media + simvastatin (0.04 μM),[1]; [21],0.3807
same,Complete Media,[1]; drug in complete media,0.1883
same,Difference,[1]; [5],−0.19
same,Difference,[2]; [22],−0.09
same,Cholesterol-free,[2]; [23],0.1831
same,Complete,[2]; [24],0.09739
Cn1cc[nH]c1=S [Methimazole],Cholesterol-free media + simvastatin (0.04 μM),[1]; [15],1.144
same,Complete Media,[1]; [16],1.001
same,Difference,[1]; [5],−0.14
same,Difference,[2]; [6],−0.20
same,Cholesterol-free,[2]; [18],1.024
same,Complete,"[2]; NCI-H292 cells, complete media",0.8245
CN(C)CCOC(c1ccccc1)c1ccccc1 [Diphenhydramine (hydrochloride)],Cholesterol-free media + simvastatin (0.04 μM),[1]; [15],0.5789
same,Complete Media,[1]; [16],0.7429
same,Difference,[1]; [19],0.16
same,Difference,[2]; [6],−0.19
same,Cholesterol-free,[2]; [18],1.083
same,Complete,"[2]; NCI-H292 cells, complete media",0.8936
Oc1c(Cl)cc(Cl)cc1Sc1cc(Cl)cc(Cl)c1O [Bithionol],Cholesterol-free media + simvastatin (0.04 μM),[1]; [3],2.228
same,Complete Media,[1]; [4],1.353
same,Difference,[1]; [5],−0.88
same,Difference,[2]; [22],−0.09
same,Cholesterol-free,[2]; [23],0.9314
same,Complete,[2]; [24],0.8442
Cl.N[C@H]1C(O)O[C@H](CO)[C@@H](O)[C@@H]1O (stereo partly drawn) [Glucosamine (hydrochloride)],Cholesterol-free media + simvastatin (0.04 μM),[1]; [15],0.9525
same,Complete Media,[1]; [16],1.178
same,Difference,[1]; [19],0.23
same,Difference,[2]; [22],−0.17
same,Cholesterol-free,[2]; [23],1.116
same,Complete,[2]; [24],0.9464
Cc1nc(Nc2ncc(C(=O)Nc3c(C)cccc3Cl)s2)cc(N2CCN(CCO)CC2)n1 [Dasatinib],Cholesterol-free media + simvastatin (0.04 μM),[1]; [15],0.3286
same,Complete Media,[1]; [16],0.514
same,Difference,[1]; [19],0.19
same,Difference,[2]; [22],−0.15
same,Cholesterol-free,[2]; [23],0.4806
same,Complete,[2]; [24],0.3333
Fc1ccc([C@@H]2CCNC[C@H]2COc2ccc3c(c2)OCO3)cc1 [Paroxetine (hydrochloride)],Cholesterol-free media + simvastatin (0.04 μM),[1]; [9],0.916
same,Complete Media,[1]; [10],0.9086
same,Difference,[1]; [11],−0.01
same,Difference,[2]; [6],−0.22
same,Cholesterol-free,[2]; [18],1.09
same,Complete,"[2]; NCI-H292 cells, complete media",0.8739
CN(C(=O)/C=C/c1ccoc1)[C@@H]1CC[C@@]2(O)[C@H]3Cc4ccc(O)c5c4[C@@]2(CCN3CC2CC2)[C@H]1O5 [Nalfurafine (hydrochloride)],Cholesterol-free media + simvastatin (0.04 μM),[1]; [15],1.083
same,Complete Media,[1]; [16],0.926
same,Difference,"[1]; complete media vs cholesterol-free media + simvastatin (0.04 μM), […]",−0.16
same,Difference,"[2]; Complete minus Cholesterol-free, […]",−0.29
same,Cholesterol-free,[2]; [18],1.222
same,Complete,"[2]; NCI-H292 cells, complete media",0.931
C/C=C(/C(=C/C)c1ccc(O)cc1)c1ccc(O)cc1 [Dienestrol],Cholesterol-free media + simvastatin (0.04 μM),[1]; [25],0.8618
same,Complete Media,[1]; [26],0.9909
same,Difference,[1]; [19],0.13
same,Cholesterol-free,[2]; [7],0.6505
same,Complete,[2]; [8],1.078
same,Difference,[2]; [17],0.43
OC(Cn1cncn1)(Cn1cncn1)c1ccc(F)cc1F [Fluconazole],Cholesterol-free media + simvastatin (0.04 μM),[1]; [3],1.268
same,Complete Media,[1]; [4],0.9392
same,Difference,[1]; [5],−0.33
same,Cholesterol-free,[2]; [18],1.23
same,Complete,"[2]; NCI-H292 cells, complete media",0.8337
same,Difference,[2]; [20],−0.40
Aliskiren (hemifumarate),Cholesterol-free media + simvastatin (0.04 μM),[1]; [25],0.7275
same,Complete Media,[1]; [26],0.8337
same,Difference,[1]; [19],0.11
same,Cholesterol-free,[2]; [18],1.354
same,Complete,"[2]; NCI-H292 cells, complete media",0.9547
same,Difference,[2]; [20],−0.40
COC(=O)C1=C(C)NC(C)=C(C(=O)OCCN(C)Cc2ccccc2)C1c1cccc([N+](=O)[O-])c1 (stereo not drawn) [Nicardipine (hydrochloride)],Cholesterol-free media + simvastatin (0.04 μM),[1]; [3],1.292
same,Complete Media,[1]; [4],0.8256
same,Difference,[1]; [5],−0.47
same,Difference,[2]; [6],−0.01
same,Cholesterol-free,[2]; [7],0.9198
same,Complete,[2]; [8],0.9062
CN(C)[C@@H]1C(O)=C(C(N)=O)C(=O)[C@@]2(O)C(O)=C3C(=O)c4c(O)ccc(Cl)c4[C@@H](O)[C@H]3C[C@@H]12 [Demeclocycline (hydrochloride)],Cholesterol-free media + simvastatin (0.04 μM),[1]; [9],1.054
same,Complete Media,[1]; [10],1.04
same,Difference,[1]; [11],−0.01
same,Difference,[2]; [12],−0.59
same,Cholesterol-free,[2]; [13],1.527
same,Complete,[2]; [14],0.9395
